From patent US20060067923A1, “Preventing agent against drug-resistant bacterial infection” (priority 2004, published 2006)
In brackets after ≈: the same amount, converted by molar mass. Where two headings read alike, the source gives them in different places. Positions of bridges follow the written chain, without caps; N, C: chain ends. Non-standard residues stand in square brackets, D forms with d. Residues, ends and D or L forms follow the SMILES beside them. *: point of attachment. Ileψ(thiazoline)Cys = CC[C@H](C)[C@H](N)C1=N[C@H](C(=O)*)CS1; dOrn = NCCC[C@@H](N)C(=O)O

Test system: Enterococcus faecalis ATCC 51299 strain
Test: MIC levels of antibiotics against Vancomycin-resistant bacteria
Assay type: cell-based
Description: Enterococcus faecalis ATCC 51299 strain was used as Vancomycin-resistant bacteria.

[1] = Enterococcus faecalis, ATCC51299, 16 h; read-out: MIC levels after 16 hours of culture
[2] = Enterococcus faecalis, ATCC51299, 24 h; read-out: MIC levels after 24 hours of culture

Compound	MIC [1]	MIC [2]	further results
CC1(C)S[C@@H]2[C@H](NC(=O)[C@H](N)c3ccccc3)C(=O)N2[C@H]1C(=O)O [Ampicillin]	0.5 µg/mL (≈ 1.43 µM)	0.5 µg/mL (≈ 1.43 µM)	
CN[C@H](CC(C)C)C(=O)N[C@H]1C(=O)N[C@@H](CC(N)=O)C(=O)N[C@H]2C(=O)N[C@H]3C(=O)N[C@H](C(=O)N[C@H](C(=O)O)c4cc(O)cc(O)c4-c4cc3ccc4O)[C@H](O)c3ccc(c(Cl)c3)Oc3cc2cc(c3O[C@@H]2O[C@H](CO)[C@@H](O)[C@H](O)[C@H]2O[C@H]2C[C@](C)(N)[C@H](O)[C@H](C)O2)Oc2ccc(cc2Cl)[C@H]1O [Vancomycin]			MIC (Enterococcus faecalis, ATCC51299, 16 h, read-out: MIC levels after 16 hours of culture): 16 µg/mL (≈ 11 µM); MIC (Enterococcus faecalis, ATCC51299, 24 h, read-out: MIC levels after 24 hours of culture): 64 µg/mL (≈ 44.2 µM)
[H]/N=C(/N)N[C@H]1[C@H](O)[C@@H](O)[C@H](O[C@@H]2O[C@@H](C)[C@](O)(C=O)[C@H]2O[C@@H]2O[C@@H](CO)[C@H](O)[C@@H](O)[C@@H]2NC)[C@@H](N/C(N)=N\[H])[C@@H]1O [Streptomycin]	> 512 µg/mL	> 512 µg/mL	
CN(C)[C@@H]1C(O)=C(C(N)=O)C(=O)[C@@]2(O)C(O)=C3C(=O)c4c(O)cccc4[C@@](C)(O)[C@H]3C[C@@H]12 [Tetracycline]	0.5 µg/mL (≈ 1.13 µM)	1 µg/mL (≈ 2.25 µM)	
CC[C@H]1OC(=O)[C@H](C)[C@@H](O[C@H]2C[C@@](C)(OC)[C@@H](O)[C@H](C)O2)[C@H](C)[C@@H](O[C@@H]2O[C@H](C)C[C@H](N(C)C)[C@H]2O)[C@](C)(O)C[C@@H](C)C(=O)[C@H](C)[C@@H](O)[C@]1(C)O [Erythromycin]	512 µg/mL (≈ 698 µM)	> 512 µg/mL	
Cc1onc(-c2ccccc2)c1C(=O)N[C@@H]1C(=O)N2[C@@H]1SC(C)(C)[C@@H]2C(=O)O [Oxacillin]	32 µg/mL (≈ 79.7 µM)	64 µg/mL (≈ 159 µM)	
O=C(N[C@H](CO)[C@H](O)c1ccc([N+](=O)[O-])cc1)C(Cl)Cl [Chloramphenicol]	64 µg/mL (≈ 198 µM)	128 µg/mL (≈ 396 µM)	
Gentamicin			MIC levels after 16 hours of culture (16 hours of culture): >512 µg/mL; MIC levels after 24 hours of culture (24 hours of culture): >512 µg/mL
CC[C@H](C)[C@H](N)C1=N[C@H](C(=O)N[C@@H](CC(C)C)C(=O)N[C@H](CCC(=O)O)C(=O)N[C@H](C(=O)N[C@H]2CCCCNC(=O)[C@H](CC(N)=O)NC(=O)[C@@H](CC(=O)O)NC(=O)[C@H](Cc3cnc[nH]3)NC(=O)[C@@H](Cc3ccccc3)NC(=O)[C@H]([C@@H](C)CC)NC(=O)[C@@H](CCCN)NC2=O)[C@@H](C)CC)CS1 [Bacitracin] ({Ileψ(thiazoline)Cys}-L[dE]IK[dOrn]I[dF]H[dD]N; lactam 4-C)	64 µg/mL (≈ 45 µM)	128 µg/mL (≈ 90 µM)	
Teicoplanin			MIC levels after 16 hours of culture (16 hours of culture): 1 µg/mL; MIC levels after 24 hours of culture (24 hours of culture): 1 µg/mL
